# Results from publication PMC9254247, “Dual-sensitive antibacterial peptide nanoparticles prevent dental caries” (Theranostics, 2022).
# What was measured:
# [1] = test system: S. mutans UA159 biofilm; experiment: S. mutans biofilm treatment in vitro on glass slides; assay type: cell-based, Streptococcus mutans; conditions: 55 μM; 10 min every 12 h, 3 times; confocal (Figure S10A-B)
# Experimental: a concentration of 1×10^8 CFU/mL. pHly-1 NPs and CHX were diluted in BHI containing 1% sucrose to reach a series of concentration s and added to 96-well microplates (180 μL). Then, 2 μL S.mutans suspensions were seeded into 96-well microplates in the presence of different concentrations of pHly -1 NPs and CHX and the plate was incubated at 37 °C. After 24 h, the culture supernatants were gently discarded, and each well was rinsed three times with PBS (pH 7.0) to remove unattached bacteria. The bacterial viability was measured by methyl thiazol tetrazolium (MTT) assay. […] The MTT assay was performed to determined the minimum biofilm inhibition concentration (MBIC 50) by using the Microplate Reader at OD 490 nm 7. […]
# S.mutans biofilm treatment in vitro, characterization and quantitative analysis.
# Biofilms were formed on circular glass slides in a 24-well plate. […] B iofilms formed on glass slides were used for SEM, fluorescent staining and bacterial quantitative analyses. […]
# For quantitative analysis9,10, after the treatment was finished, biofilms were removed from the glass slides and homogenized by water bath sonication followe d by probe sonication at an output of 7 W for 30 s (Branson Sonifier 150, Branson Ultrasonics). […] The effect of pHly- 1 NPs or CHX on biofilms was measured by counting the CFU of alive bacteria with agar plating after incubation for 48 h at 37 °C. […]
# [2] = test system: S. mutans UA159; experiment: Bacterial killing assay (CFU counting), S. mutans UA159; assay type: cell-based, Streptococcus mutans; conditions: for bactericidal effect: 10 min
# Experimental: Minimal inhibition concentration (MIC) determination . S.mutans UA159 (ATCC 700610) and 20 clinical S.mutans strains were used. S.mutans UA159 was purchased from Shanghai Biofeng Biotechnology Co., LTD. These bacteria grown in brain heart infusion broth (BHI, Beijing Land Bridge, China) at 37 °C under anaerobic conditions. […]
# Bacterial killing by pHly-1 NPs at various pHs. pHly-1 NPs were diluted in BHI medium of different pHs (pH 4.5, 5.5, 6.8, and 7.0) to obtain specific diluted solutions (final volume of 200 μ L). 1 μ L bacterial suspension (2×10^8 CFU/mL) in the logarithmic phase was added into corresponding diluted solutions and mixed […]
# individually. […]
# aliquots of 20 μL bacterial suspension were plated on BHI agar plates. The bacterial killing activity of pHly -1 NPs was measured by counting the CFU of alive bacteria with agar plating after incubation under anaerobic conditions for 48 h at 37 °C. The results were determined and presented of three repeats. Bacterial survival(%) = CFU of bacteria treated with drugs/CFU of bacteria treated with negative control× 100% 2.
# The SYTO 9 / PI double staining and scanning electron microscopy (SEM) were also performed to evaluate the bacterial killing and bacterial membrane disruption.
# For SYTO 9/PI double staining, pHly -1 NPs was added to actively growing S. mutans UA159 (10^6 CFU/m L) at the concentration of 22 μM at pH 4.5 or pH 7.0, after 1 h incubation, the bacteria treated were imaged by using LIVE/DEAD BacLight Bacterial Viability Kit (Thermo Fisher Scientific). SYTO 9 and PI were added according to the manufacturer ’s protocol and used for labeling […]
# bacteria. […]
# For SEM, S. mutans UA159 was treated by the same way to SYTO 9/PI double staining asay and then harvested, washed, and then fixed in 2.5 % glutaraldehyde for 3 h. After dehydration by serial concentrations of ethanol solutions (10%, 25%, 50%, 75%, 95%, and 100%) and lyophiliz ation overnight, the lyophilized samples were coated with goldand then photographed by SEM.
compound,measurement,setting,value
"[H]/N=C(\N/C(=N/[H])NCCCCCCNC(=N)NC(=N)Nc1ccc(Cl)cc1)Nc1ccc(Cl)cc1 [CHX, chlorhexidine]",suppression effect on pre-formed biofilm,[1],almost negligible
same,bactericidal effect,"[2]; 22 μM, both acidic and neutral pH",no apparent bactericidal effect
same,bacterial survival,"[2]; 22 μM, 120 min, kinetic assay",ca. 60%
same,bactericidal effect,"[2]; 550 μM, both acidic and neutral conditions",kill bacteria completely
